Source: US20170313669A1, “LACTONE COMPOUNDS AND METHODS OF MAKING AND USING SAME” (THE SCRIPPS RESEARCH INSTITUTE, priority 2015, published 2017)

Columns and labels:
mouse ABHD16A = biological target: T1, mouse ABHD16A (Mus musculus, UniProt Q9Z1Q2); experiment: PS substrate assay, mouse ABHD16A-transfected HEK293T proteome; assay type: biochemical; conditions: 30 min, 37° C.; C18:0/C18:2 PS 100 μM; read-out: IC50, PS-lipase activity
T1 construct: full-length cDNA of human ABHD16A (Open Biosystems Catalog # MHS6278-202758315) or murine ABHD16A (Open Biosystems Catalog # MMM1013-202760516); host or cells: HEK293T, transient, pCMV-SPORT6
T1 sequence (Q9Z1Q2 1-558): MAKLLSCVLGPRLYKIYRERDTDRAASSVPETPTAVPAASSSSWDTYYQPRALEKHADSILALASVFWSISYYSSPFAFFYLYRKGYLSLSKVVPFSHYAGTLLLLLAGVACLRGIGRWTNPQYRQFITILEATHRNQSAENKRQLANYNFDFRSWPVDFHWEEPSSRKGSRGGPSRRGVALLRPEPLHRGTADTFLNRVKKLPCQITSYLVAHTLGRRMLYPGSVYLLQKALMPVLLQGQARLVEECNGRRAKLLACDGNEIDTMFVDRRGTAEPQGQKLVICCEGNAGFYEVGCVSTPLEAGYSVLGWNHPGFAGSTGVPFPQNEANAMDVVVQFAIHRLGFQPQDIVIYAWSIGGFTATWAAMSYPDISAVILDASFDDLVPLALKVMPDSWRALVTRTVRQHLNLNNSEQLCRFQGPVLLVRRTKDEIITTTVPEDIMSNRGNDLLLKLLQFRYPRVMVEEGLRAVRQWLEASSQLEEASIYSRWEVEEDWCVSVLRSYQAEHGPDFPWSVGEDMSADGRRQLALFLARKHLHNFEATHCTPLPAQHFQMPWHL

[1] = system: mouse peritoneal macrophages; experiment: LPS-induced cytokine release from peritoneal macrophages; assay type: cell-based; conditions: pre-treatment 1 μM, 4 h; LPS 5 μg/mL, 7 h
Protocol: All PS-lipase substrate assays were performed on either 18:0-18:2 PS (Avanti Catalog #840063) or 16:0-18:1 PS (Avanti Catalog #840034). 17:1 FFA (Sigma-Aldrich #H8896) was used an internal standard for substrate assays, as well as lipidomic analysis. 2-AG-d5 (Catalog #362162) and PGE2-d9 (Catalog #10581) were purchased from Cayman Chemicals. COLO205, MCF7, K562 and HEK293T cells were purchased from ATCC. All full-length cDNA constructs coding for serine hydrolases ABHD16A, and ABHD12 were purchased from Open Biosystems (GE Healthcare), and all primers were obtained from Integrated DNA Technologies. All DNA sequencing was performed by Eton Biosciences Inc. All cytokine analysis was done using single analyte ELISA kits purchased from R&D Systems, Mouse TNF-α (Catalog # DY410), Mouse IL-6 (Catalog # DY406), and Mouse IL-1β (Catalog # DY401). All tissue culture media and supplements (RPMI 1640, DMEM, and Trypsin) were purchased from Caisson Labs, and SILAC RPMI was purchased from Thermo Scientific. […]
Peritoneal macrophages were elicited and harvested from mice according to the standard protocols available from LIPID MAPS (See http://www.lipidmaps.org/protocols/PP0000001400.pdf and http://www.lipidmaps.org/protocols/PP0000001500.pdf). […] Cell counts measured using a Bio-Rad TC10 automated cell counter, and equal numbers of cells (2×10^6) were plated in 10 cm tissue culture dishes. […]

ABHD16A−/− macrophages = experiment: Lyso-PS and cytokines of ABHD16A−/− macrophages; assay type: cell-based, mouse; conditions: basal or LPS stimulation; 1 μM, 4 h
Protocol: Concentration of secreted lyso-PS (a) and cytokines IL-6 (b) and TNF-α (c) from thioglycollate-elicited peritoneal mouse macrophages from ABHD16A^−/− mice treated with inhibitor (KC01 or KC02, 1 μM, 4 h) followed by vehicle (PBS) or LPS (5 μg/mL) for 7 h is shown. Data represent mean±s.e.m. for four biological replicates. KC01 and KC02 have no effect on lyso-PS or cytokine secretion. Other secreted and cellular lipids in ABHD16A^−/− macrophages were also unchanged by KC01 or KC02 treatment (data not shown).
Peritoneal macrophages were elicited and harvested from mice according to the standard protocols available from LIPID MAPS (See http://www.lipidmaps.org/protocols/PP0000001400.pdf and http://www.lipidmaps.org/protocols/PP0000001500.pdf). After removal of the RBC lysis buffer, the macrophages were re-suspended in RPMI 1640 with 10% FCS and IX penicillin-streptomycin. Cell counts measured using a Bio-Rad TC10 automated cell counter, and equal numbers of cells (2×10^6) were plated in 10 cm tissue culture dishes. Macrophages were allowed to adhere to the plates for 2 h at 37° C. and 5% CO2. […] Macrophages were then stimulated with lipopolysaccharide (5 μg/mL) for 7 hours. Sterile PBS was the vehicle in these studies. Four milliliters of the media was used for measuring secreted metabolites, and 0.5 mL was used for cytokine measurements.

K562 cells = experiment: PS lipase activity of membrane fraction after in situ treatment; conditions: 1 μM, 4 h
MCF7 cells = experiment: as above; conditions: 1 μM, 4 h

Structure (SMILES): CCCCCCCCCCCCCC1OC(=O)/C1=C\CCCCC(N)=O (centres unmarked) [KC01, (Z)-6-(2-oxo-4-tridecyloxetan-3-ylidene)hexanamide]
- IC50 (mouse ABHD16A): 0.52 ± 0.07 µM
- LPS-induced cytokine release [1]: significantly blunted
- cellular or secreted lyso-PS, other lipids, secreted IL-6 and TNF-α (ABHD16A−/− macrophages): No changes
- decrease of PS-lipase activity vs DMSO (K562 cells): > 90%
- decrease of PS-lipase activity vs DMSO (MCF7 cells): > 90%
